{"source": "ChEMBL document CHEMBL3992488", "about": "“Anticancer agents interacting with membrane glucose transporters” (Medchemcomm, 2016)", "key": {"[1]": {"target": "T1, Solute carrier family 2, facilitated glucose transporter member 1 (Homo sapiens, UniProt P11166)", "T1 sequence (P11166 whole entry)": "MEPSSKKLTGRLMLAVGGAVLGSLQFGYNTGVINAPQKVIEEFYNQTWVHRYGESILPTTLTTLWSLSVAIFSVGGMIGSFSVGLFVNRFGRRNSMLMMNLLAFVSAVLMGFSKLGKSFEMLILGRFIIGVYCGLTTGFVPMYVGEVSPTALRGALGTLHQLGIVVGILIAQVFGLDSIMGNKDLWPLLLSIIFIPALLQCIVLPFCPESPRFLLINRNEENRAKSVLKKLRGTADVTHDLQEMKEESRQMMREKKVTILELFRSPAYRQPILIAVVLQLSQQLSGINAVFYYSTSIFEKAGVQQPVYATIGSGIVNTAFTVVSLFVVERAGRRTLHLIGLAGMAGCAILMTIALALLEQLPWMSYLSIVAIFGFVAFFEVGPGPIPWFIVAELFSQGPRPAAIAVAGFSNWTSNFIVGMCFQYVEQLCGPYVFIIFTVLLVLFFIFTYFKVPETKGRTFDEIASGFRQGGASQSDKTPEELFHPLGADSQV", "experiment": "Inhibition of GLUT1 in human A431 cells assessed as reduction in 2-[1,2-3H]deoxy-D-glucose uptake measured after 30 mins by liquid scintillation counting method", "type": "cell-based"}, "[2]": {"target": "T1, Solute carrier family 2, facilitated glucose transporter member 1", "experiment": "Non-competitive inhibition of GLUT1-mediated facilitative uptake of [3H]-2-deoxy-D-glucose in human erythrocyte membranes", "type": "cell membranes"}, "[3]": {"target": "T1, Solute carrier family 2, facilitated glucose transporter member 1", "experiment": "Inhibition of GLUT1-mediated glucose uptake in human A549 cells assessed as reduction in ATP synthesis up to 30 mins in presence of mitochondrial function blocker antimycin A", "type": "cell-based"}, "[4]": {"target": "T1, Solute carrier family 2, facilitated glucose transporter member 1", "experiment": "Inhibition of GLUT1 (unknown origin)-mediated glucose uptake expressed in CHO-K1 cells assessed as reduction in ATP synthesis up to 30 mins in presence of mitochondrial function blocker antimycin A", "type": "cell-based"}, "[5]": {"system": "PC-3", "experiment": "Cytotoxicity against human PC3 cells after 48 hrs by SRB assay", "type": "functional, cell-based", "conditions": "PC-3, 48 h"}, "[6]": {"target": "T1, Solute carrier family 2, facilitated glucose transporter member 1", "experiment": "Inhibition of human GLUT1 expressed in human DLD1 cells assessed as reduction in glucose uptake", "type": "cell-based"}, "[7]": {"target": "T2, Solute carrier family 2, facilitated glucose transporter member 4 (Homo sapiens, UniProt P14672)", "T2 sequence (P14672 whole entry)": "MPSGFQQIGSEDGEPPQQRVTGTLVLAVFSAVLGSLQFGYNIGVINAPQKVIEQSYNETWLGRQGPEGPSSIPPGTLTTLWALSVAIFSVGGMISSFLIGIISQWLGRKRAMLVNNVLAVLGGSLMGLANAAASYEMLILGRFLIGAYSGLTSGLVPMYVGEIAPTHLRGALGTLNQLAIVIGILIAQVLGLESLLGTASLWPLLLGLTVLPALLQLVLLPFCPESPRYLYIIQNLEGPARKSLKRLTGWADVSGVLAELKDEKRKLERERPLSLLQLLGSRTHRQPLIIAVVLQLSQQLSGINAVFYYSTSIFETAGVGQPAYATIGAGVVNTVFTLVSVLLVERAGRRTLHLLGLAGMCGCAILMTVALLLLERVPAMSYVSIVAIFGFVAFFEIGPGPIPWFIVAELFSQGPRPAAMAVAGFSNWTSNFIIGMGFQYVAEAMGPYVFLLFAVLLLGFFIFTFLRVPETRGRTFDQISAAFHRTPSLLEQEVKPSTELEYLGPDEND", "experiment": "Inhibition of human GLUT4 expressed in CHO cells assessed as reduction in glucose uptake", "type": "cell-based"}, "[8]": {"target": "T3, Solute carrier family 2, facilitated glucose transporter member 2 (Homo sapiens, UniProt P11168)", "T3 sequence (P11168 whole entry)": "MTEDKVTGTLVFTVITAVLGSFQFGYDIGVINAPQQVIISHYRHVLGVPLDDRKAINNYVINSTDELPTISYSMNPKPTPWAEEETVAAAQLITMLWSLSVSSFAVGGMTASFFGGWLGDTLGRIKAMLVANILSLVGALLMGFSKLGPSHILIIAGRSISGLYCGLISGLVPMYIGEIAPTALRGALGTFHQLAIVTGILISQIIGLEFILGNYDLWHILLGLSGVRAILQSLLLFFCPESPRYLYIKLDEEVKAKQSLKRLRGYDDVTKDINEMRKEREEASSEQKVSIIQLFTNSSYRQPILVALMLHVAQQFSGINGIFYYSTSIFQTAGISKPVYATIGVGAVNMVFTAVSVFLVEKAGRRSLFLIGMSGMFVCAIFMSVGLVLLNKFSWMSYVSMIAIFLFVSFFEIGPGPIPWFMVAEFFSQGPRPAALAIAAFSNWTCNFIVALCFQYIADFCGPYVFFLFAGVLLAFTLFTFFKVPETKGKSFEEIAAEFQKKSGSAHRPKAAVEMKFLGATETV", "experiment": "Inhibition of human GLUT2 expressed in Xenopus laevis oocytes assessed as reduction in [3H] 2-deoxyglucose uptake by scintillation spectrometric method", "type": "cell-based"}, "[9]": {"target": "T3, Solute carrier family 2, facilitated glucose transporter member 2", "experiment": "Inhibition of human GLUT2 expressed in Xenopus laevis oocytes assessed as reduction in [14C]fructose uptake by scintillation spectrometric method", "type": "cell-based"}, "[10]": {"target": "T4, Solute carrier family 2, facilitated glucose transporter member 4 (Rattus norvegicus, UniProt P19357)", "T4 sequence (P19357 whole entry)": "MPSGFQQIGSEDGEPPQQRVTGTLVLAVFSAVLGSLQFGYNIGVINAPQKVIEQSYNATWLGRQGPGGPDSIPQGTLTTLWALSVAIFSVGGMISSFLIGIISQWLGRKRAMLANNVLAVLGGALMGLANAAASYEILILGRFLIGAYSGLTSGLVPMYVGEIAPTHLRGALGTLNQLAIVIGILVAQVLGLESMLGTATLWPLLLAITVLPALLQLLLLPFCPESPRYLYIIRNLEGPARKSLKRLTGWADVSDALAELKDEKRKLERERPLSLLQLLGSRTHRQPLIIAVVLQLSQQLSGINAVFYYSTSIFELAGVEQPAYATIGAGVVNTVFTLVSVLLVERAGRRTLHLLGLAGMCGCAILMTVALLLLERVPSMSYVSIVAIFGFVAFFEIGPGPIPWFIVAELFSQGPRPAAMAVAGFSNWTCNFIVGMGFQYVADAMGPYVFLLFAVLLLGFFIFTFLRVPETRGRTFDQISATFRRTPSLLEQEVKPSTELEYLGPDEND", "experiment": "Competitive inhibition of GLUT4 in Wistar rat adipocytes assessed as reduction in insulin-stimulated 3-O-[3H]methyl-D-glucose uptake measured for 30 secs by Lineweaver-Burk plot analysis", "type": "cell-based"}, "[11]": {"target": "T5, Solute carrier family 2, facilitated glucose transporter member 1 (Homo sapiens) (UniProt P11166)", "T5 sequence (whole entry)": "T1 sequence (P11166 whole entry)", "experiment": "Inhibition of GLUT1 in human HT1080 cells assessed as reduction in [3H]2-deoxy-D-glucose uptake at 10 uM preincubated for 30 mins followed by [3H]2-deoxy-D-glucose addition measured after 60 mins by microbeta scintillation counting method relative to control", "type": "cell-based"}, "[12]": {"system": "A549", "experiment": "Antitumor activity against human A549 cells xenografted in NU/J nude mouse assessed as inhibition of tumor volume at 10 mg/kg, ip administered daily for 10 weeks measured every 7 days during compound dosing relative to control", "type": "functional"}, "[13]": {"target": "T1, Solute carrier family 2, facilitated glucose transporter member 1", "experiment": "Inhibition of GLUT1-mediated [14C]glucose uptake in human erythrocytes", "type": "cell-based"}, "[14]": {"experiment": "Inhibition of PI3K in human U937 cells assessed as reduction in GLUT4 translocation by measuring reduction in 2-[1,2-3H(N)]deoxy-D-glucose uptake after 3 mins by scintillation spectrometric method", "type": "cell-based", "conditions": "U-937"}, "[15]": {"species_on_record": "Mus musculus", "experiment": "(§1) Inhibition of PI3K in mouse 3T3L1 cells assessed as reduction in insulin-stimulated GLUT4 translocation by measuring reduction in [1-14C]-2-deoxy-D-glucose uptake at 6 uM pretreated for 3 days followed by insulin stimulation for 10 mins and subsequent addition of [1-14C]-2-deoxy-D-glucose measured after 10 mins relative to control", "type": "cell-based"}, "[16]": {"species_on_record": "Homo sapiens", "experiment": "as §1, with “human MCF7” for “mouse 3T3L1”, “100” for “6”, “15 mins” for “3 days”", "type": "cell-based"}, "[17]": {"system": "MCF7", "experiment": "Cytotoxicity against human MCF7 cells assessed as growth inhibition at 100 uM after 24 hrs by CellTiter 96 AQueous Non-Radioactive assay relative to control", "type": "functional", "conditions": "MCF7, 24 h, read-out: GI"}}, "data": [{"smiles": "C/C=C(\\C)[C@H](O[C@@H]1O[C@H](CO)[C@@H](O)[C@H](O)[C@H]1O)[C@H](C)/C=C(C)/C=C/C/C(C)=C/Cc1nc(OC)c(OC)c(O)c1C", "values": [{"measurement": "IC50", "setting": "[1]", "result": 0.0049, "unit": "µM"}]}, {"smiles": "CCOC(=O)[C@@]12CCCCC/C=C\\1N(Cc1cccc3ccccc13)C(=O)[C@H]2CC(=O)N1CCN(C(=O)c2ccco2)CC1", "values": [{"measurement": "Ki", "setting": "[2]", "result": 1.2, "unit": "µM"}, {"measurement": "IC50", "setting": "[3]", "result": 10, "unit": "µM"}, {"measurement": "IC50", "setting": "[4]", "result": 2, "unit": "µM"}]}, {"smiles": "O=C1C[C@@H]2/C(=C(O)\\C=C\\c3ccccc3)C(=O)C=C[C@@H]2O1", "note": "[CRYPTOCARYONE]", "values": [{"measurement": "IC50", "setting": "[5]", "result": 1.6, "unit": "µM"}]}, {"smiles": "C[C@H](NC(=O)[C@H](Cc1ccc(F)cc1)NC(=O)Cc1cccc(O)c1)c1ccccc1", "values": [{"measurement": "IC50", "setting": "[6]", "result": 0.267, "unit": "µM"}, {"measurement": "IC50", "setting": "[7]", "result": 0.195, "unit": "µM"}]}, {"smiles": "O=c1c(O)c(-c2ccc(O)c(O)c2)oc2cc(O)cc(O)c12", "note": "[QUERCETIN]", "values": [{"measurement": "IC50", "setting": "[8]", "result": "12 to 17", "unit": "µM"}, {"measurement": "IC50", "setting": "[9]", "result": "12 to 17", "unit": "µM"}, {"measurement": "Ki", "setting": "[10]", "result": 16, "unit": "µM"}]}, {"smiles": "CC(C)NC(=O)COc1cccc(-c2nc(Nc3ccc4[nH]ncc4c3)c3ccccc3n2)c1", "values": [{"measurement": "inhibition", "setting": "[11]", "result": "> 90", "unit": "%"}]}, {"smiles": "O=C(Oc1cccc(F)c1OC(=O)c1cccc(O)c1)c1cccc(O)c1", "values": [{"measurement": "inhibition in vivo at 10 mg/kg", "setting": "[12]", "result": "> 70", "unit": "%"}]}, {"smiles": "O=c1c(O)c(-c2cc(O)c(O)c(O)c2)oc2cc(O)cc(O)c12", "note": "[MYRICETIN]", "values": [{"measurement": "IC50", "setting": "[8]", "result": "12 to 17", "unit": "µM"}, {"measurement": "IC50", "setting": "[9]", "result": "12 to 17", "unit": "µM"}, {"measurement": "Ki", "setting": "[10]", "result": 33.5, "unit": "µM"}]}, {"smiles": "CS(=O)(=O)O[C@H]1[C@H](O)[C@@H](O)C(O)O[C@@H]1CO", "note": "(stereo partly specified)", "values": [{"measurement": "IC50", "setting": "[13]", "result": 32000, "unit": "µM"}]}, {"smiles": "O=C(CCCc1ccc(N(CCCl)CCCl)cc1)OC[C@H]1OC(O)[C@H](O)[C@@H](O)[C@@H]1O", "note": "(stereo partly specified)", "values": [{"measurement": "IC50", "setting": "[13]", "result": 65, "unit": "µM"}]}, {"smiles": "O=C1C[C@@H](c2ccc(O)cc2)Oc2cc(O)cc(O)c21", "note": "[NARINGENIN]", "values": [{"measurement": "IC50", "setting": "[14]", "result": 50, "unit": "µM"}, {"measurement": "inhibition", "setting": "[15]", "result": 20, "unit": "%"}, {"measurement": "inhibition", "setting": "[16]", "result": 50, "unit": "%"}, {"measurement": "inhibition of growth at 100 µM", "setting": "[17]", "result": 20, "unit": "%"}]}]}
